In publication PMC5841205, “Pharmacological targeting of apelin impairs glioblastoma growth” (Brain, 2017):
Positions of bridges follow the written chain, without caps; N, C: chain ends. Residues, ends and D or L forms follow the SMILES beside them.

Columns and labels:
[1] = Plasma pharmacokinetics after intraperitoneal administration; assay type: in vivo, mouse
Method: (§1) B. MM54 compound was solubilized in water and administered intraperitoneally (IP) at the dose of 3.6 mg/kg to healthy mice.
(§2) Mice (3/group) were sacrificed at 10 min, 30 min, 60 min, 2h, 4h, 6h, 8h and 24h post-injection. Plasma and brains were collected and further processed for LC-MS/MS analysis. B/P index is 0.24. AUC is area under the curve. n.d. stands for ‘not able to be

Solubility in vehicles = assay type: physicochemical
Method: Conditions Solubility Solubility […]
saline (10%) + hydroxypropyl-β-cyclodextrin >0.69 >1.20 […]
A. MM54 compound (1 mg) was re-suspended in the different vehicles for 24h, RT, under gentle rotation. Solutions were analysed by HPLC and concentrations calculated using DMSO-re-suspended MM54 as standard. […]

tumour-bearing mice = experiment: Cardiac frequency, blood pressure and glycaemia, MM54; assay type: in vivo, mouse; settings: MM54 2 mg/kg bi-weekly for 4 weeks
Method: To test potential toxic effects of MM54 and MM193 in vivo, mice were administered 2 mg/kg of MM54, MM193 or vehicle bi-weekly for 4 weeks. At sacrifice, blood was taken for analysis and the heart, kidney, aorta and liver removed, weighed and fixed for histological analysis. For the glycaemic study, animals were starved for 6 h prior to sacrifice.
Figure 6 Pharmacological inhibition of APLNR by MM54 reduces xenograft progression. (A) Tumour-bearing mice were fasted for 6 h and the effect of either MM54 (2 mg/kg) or DMSO vehicle treatment on glycaemia measured via blood analysis. (B) Cardiac frequency and blood pressure were measured in random-fed tumour-bearing animals. (C) Nude mice were implanted with GSC#9 (5 × 10^5 cells) in each flank and treated with either DMSO vehicle or the APLNR antagonist (MM54, 2 mg/kg) bi-weekly from Week 4. Tumour volume was measured weekly until Week 11. n = 10/group. (D and E) Cryosections from GSC tumours were assessed for PECAM (red), Ki67 (green), NESTIN (green), SOX2 (green) and apoptosis (TUNEL). (F) Tumour sections were assessed for pS9-GSK3β staining in DMSO vehicle- and MM54-treated animals. Scale bars = 40 µm. […] All panels are representative of n = 3, unless specified.

[2] = test system: panel of normal human and primary glioblastoma cell lines; experiment: Cell viability (UptiBlue), cell line panel; assay type: cell-based; settings: MM54 2, 20 and 100 μM, 3 days; cardiomyocytes, HaCAT, CaCo2, hCMEC/D3, Jurkat, SH-SY5Y, SVGp12, glioblastoma lines
Method: Cell viability in response to MM54 was tested using the UptiBlue reagent (Interchim), a fluorometric/colorimetric growth indicator based on the detection of metabolic activity. Briefly, cells were seeded at a density of 2 × 10^3 per well, UptiBlue added at a concentration of 10% v/v and cells maintained at 37°C 5% CO2 until analysis. Absorbance was measured at Day 5 following treatment at 570 and 600 nm on a FLUOStar OPTIMA (BMG Labtech) plate reader, and the percentage of cell viability calculated according to the manufacturer’s instructions.
Figure 5 Pharmacological inhibition of APLNR by MM54 impairs the in vitro expansion of temozolomide-resistant GSCs. (A) Cell viability following treatment with DMSO, MM54 (2, 20 and 100 μM) or temozolomide (TMZ, 50 μM) was measured using UptiBlue in different cell types for 3 days. […] (B and C) Cell viability following treatment with DMSO or TMZ (100 μM) was measured using UptiBlue in GSCs #1, #4, #9, and #12 for 3 days. […] (D) GSC#1 viability was assessed following combined treatment with MM54 (0.2–20 μM) and TMZ (constant ratios TMZ:MM54 2.5:1, 5:1, and 10:1) in NS and human brain endothelial cell-conditioned medium (EC-CM) conditions. (E and F) Tumoursphere per field of view (fov) and ALDH activity were assessed in response to MM54 (0.2–100 μM) or TMZ (10–100 μM) treatment at Day 5. […]

[3] = Brain pharmacokinetics after intraperitoneal administration; assay type: in vivo, mouse
Method: as §1, §2

[4] = healthy animals, intraperitoneal
[5] = healthy mice, IP 3.6 mg/kg in water, 3/group, LC-MS/MS
[6] = mouse, plasma, healthy mice, IP 3.6 mg/kg in water, 3/group, LC-MS/MS
[7] = saline (10%) + hydroxypropyl-β-cyclodextrin, 1 mg, 24h, RT, gentle rotation, HPLC
[8] = saline (10%) + kolliphor EL, 1 mg, 24h, RT, gentle rotation, HPLC
[9] = saline (15%) + kolliphor HS15 + PEG (10%) + ethanol (5%), 1 mg, 24h, RT, gentle rotation, HPLC
[10] = saline (15%) + kolliphor HS15, 1 mg, 24h, RT, gentle rotation, HPLC
[11] = saline (NaCl 0.9%), 1 mg resuspended, 24h, RT, gentle rotation, HPLC

SMILES: CC(C)C[C@@H]1NC(=O)[C@H](CCCNC(=N)N)NC(=O)[C@@H]2CCCN2C(=O)[C@H](CCCNC(=N)N)NC(=O)[C@@H](NC(=O)[C@H](Cc2c[nH]cn2)NC(=O)[C@H](CCCCN)NC(=O)[C@@H]2CSSC[C@H](N)C(=O)N[C@@H](CCCNC(=N)N)C(=O)N3CCC[C@H]3C(=O)N[C@@H](CCCNC(=N)N)C(=O)N[C@@H](CC(C)C)C(=O)N2)CSSC[C@@H](C(=O)O)NC1=O [MM54, cyclo(1–6)CRPRLC-KH-cyclo(9–14)CRPRLC] (H-CRPRLCKHCRPRLC-OH; disulfide 1-6, 9-14)
- detection in plasma [1, 4]: detected in the plasma and the brain
- Cmax (µM), plasma [1, 5]: 0.6 µM
- AUC [1, 6]: 1470 ng·h/mL
- half-life [1, 6]: 2.37 ± 0.367 h
- Cmax ([1]; mouse, plasma, healthy mice, IP 3.6 mg/kg in water, 3/group, LC-MS/MS, read-out: Cmax (µg.ml-1), plasma): 1.1 µg/mL
- Tmax ([1]; mouse, plasma, healthy mice, IP 3.6 mg/kg in water, 3/group, LC-MS/MS, read-out: Time Cmax, plasma (converted)): 0.167 h
- solubility (Solubility in vehicles; in the tested solutions (vehicles)): good solubility in the tested solutions
- Solubility (mM), saline + hydroxypropyl-β-cyclodextrin (Solubility in vehicles; [7]): > 0.69 mM
- Solubility (mg.ml-1), saline + hydroxypropyl-β-cyclodextrin (Solubility in vehicles; [7]): > 1.20 mg/mL
- Solubility (mM), saline + kolliphor EL (Solubility in vehicles; [8]): > 0.60 mM
- Solubility (mg.ml-1), saline + kolliphor EL (Solubility in vehicles; [8]): > 1.04 mg/mL
- Solubility (mM), saline + kolliphor HS15 + PEG + ethanol (Solubility in vehicles; [9]): > 0.73 mM
- Solubility (mg.ml-1), saline + kolliphor HS15 + PEG + ethanol (Solubility in vehicles; [9]): > 1.27 mg/mL
- Solubility (mM), saline + kolliphor HS15 (Solubility in vehicles; [10]): > 0.69 mM
- Solubility (mg.ml-1), saline + kolliphor HS15 (Solubility in vehicles; [10]): > 1.20 mg/mL
- Solubility (mg.ml-1), saline (Solubility in vehicles; [11]): > 1.27 mg/mL
- solubility at 24 h (Solubility in vehicles; [11]): > 0.73 mM
- cardiac frequency, blood pressure and glycaemic index (tumour-bearing mice): did not induce alterations to these parameters
- toxicity (viability) in cell line panel [2]: no overtly toxic effects on any of the cell lines tested
- detection in brain [3, 4]: detected in the plasma and the brain
- Cmax (µM), brain [3, 5]: 0.14 µM
- Cmax (µg.ml-1), brain [3, 5]: 0.26 µg/mL
- Time Cmax, brain [3, 5]: 10 min
- Kp ([3]; mouse, healthy mice, IP 3.6 mg/kg in water, brain vs plasma, read-out: B/P index): 0.24
